Experimental findings from paper PMC9502272, “A Metabolomics Approach for Predicting OATP1B-Type Transporter-Mediated Drug–Drug Interaction Liabilities” (Pharmaceutics, 2022) are described below.

In this data set the target is T1, Oatp1b2 (Mus musculus, UniProt Q9JJL3).
T1 sequence (Q9JJL3 1-689): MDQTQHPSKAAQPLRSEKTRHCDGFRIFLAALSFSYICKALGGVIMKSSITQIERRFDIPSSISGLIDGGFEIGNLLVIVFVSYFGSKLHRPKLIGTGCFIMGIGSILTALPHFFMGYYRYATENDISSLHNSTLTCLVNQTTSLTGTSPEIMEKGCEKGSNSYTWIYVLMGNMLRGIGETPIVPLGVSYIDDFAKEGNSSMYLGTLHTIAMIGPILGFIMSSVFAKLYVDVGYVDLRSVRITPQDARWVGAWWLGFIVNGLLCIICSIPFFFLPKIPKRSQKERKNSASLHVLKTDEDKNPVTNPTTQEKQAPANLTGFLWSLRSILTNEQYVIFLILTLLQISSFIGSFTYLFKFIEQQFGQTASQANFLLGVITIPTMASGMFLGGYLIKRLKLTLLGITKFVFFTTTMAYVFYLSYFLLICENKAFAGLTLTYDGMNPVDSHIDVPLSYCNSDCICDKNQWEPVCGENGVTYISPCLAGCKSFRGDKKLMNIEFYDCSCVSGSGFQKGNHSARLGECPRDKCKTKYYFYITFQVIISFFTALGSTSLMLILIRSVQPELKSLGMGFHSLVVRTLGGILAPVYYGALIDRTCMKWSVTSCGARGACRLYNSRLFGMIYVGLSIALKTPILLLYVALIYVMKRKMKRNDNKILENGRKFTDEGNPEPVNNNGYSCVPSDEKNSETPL
The experiment in a line: Untargeted metabolomics of plasma from untreated wild-type and Oatp1b2(−/−) mice. Conditions: for Fold of Change KO/WT: plasma of untreated Oatp1b2-deficient (KO) vs wild-type (WT) mice, semi-quantitative, positive = higher in KO, n = 6 per group; for Mean value KO: plasma of untreated Oatp1b2-deficient mice; for Mean value KO / Mean value WT: raw area counts rescaled to median = 1; for Mean value WT: plasma of untreated wild-type mice.

Structures can show the parent of a compound that is named as a salt.

Procedure: For all experiments, age- and sex-matched mice (8–12 weeks old) were used. […] Mice with a deficiency of Oatp1b2 (Oatp1b2(−/−) mice), the single murine orthologue of OATP1B1 and OATP1B3 in humans, on a DBA/1LacJ background were kindly provided by Drs. Richard B. Kim (Western University, London, Ontario, Canada) and Jeffrey L. Stock (Pfizer, Groton, CT, USA).
Plasma samples from untreated wild-type mice and Oatp1b2(−/−) mice were analyzed for structurally named and unknown molecules using a non-targeted semi-quantitative liquid chromatography-tandem mass spectrometry (LC-MS/MS) and gas chromatography-mass spectrometry platforms (Metabolon, Durham, NC, USA). Compounds were identified by comparison with library entries of purified standards or recurrent unknown entities.

`CCCCCCCCCCCCCCCCC(N)=O` [margaramide (17:0)]: the “Fold of Change KO/WT” value is 1.45, the “Mean value KO” value stood at 1.19 and the “Mean value WT” value was “.826”.
Turning to `CCCCCCCCCCCCCCCCC(=O)OC(CC(=O)[O-])C[N+](C)(C)C` (stereo not drawn) [margaroylcarnitine (C17)], the “Fold of Change KO/WT” value is reported as 1.59, the “Mean value KO” value is given as 1.21 and the “Mean value WT” value is “.764”.
Take `COP(=O)(O)O` [methylphosphate]: the “Fold of Change KO/WT” value came to 1.27, the “Mean value KO” value stood at 1.08 and the “Mean value WT” value is “.848”.
The like results for `CC(O)(CCO)CC(=O)O` (stereo not drawn) [mevalonate] were, in that order, 1.24, 1.15 and “.925”.
The matching figures for `CCCCCCCCCCCCCC(=O)O[C@H](CC(=O)[O-])C[N+](C)(C)C` [myristoylcarnitine (C14)]: 1.39, 1.26 and “.904”.
The matching figures for `O=C(O)CCCCCCCCCCCCCCCCCC(=O)O` [nonadecanedioate (C19-DC)]: 1.44, 1.30 and “.902”.
Turning to `O=C(O)CCCCCCCCCCCCCCCCC(=O)O` [octadecanedioate (C18-DC)], the “Fold of Change KO/WT” value is on record as 1.38, the “Mean value KO” value was 1.27 and the “Mean value WT” value is given as “.916”.
The matching figures for `C[N+](C)(C)CC(CC(=O)[O-])OC(=O)CCCCCCCCCCCCCCCCC(=O)O` (stereo not drawn) [octadecanedioylcarnitine (C18-DC)]: 1.16, 1.00 and “.860”.
The matching figures for `CCCCCCCC(=O)O[C@H](CC(=O)O)C[N+](C)(C)C` [octanoylcarnitine (C8)]: 1.62, 1.47 and “.910”.
The matching figures for `CCCCCCCC/C=C\CCCCCCCC(N)=O` [oleamide]: 1.38, 1.22 and “.886”.
In the case of `CCCCCCCC/C=C\CCCCCCCC(=O)O[C@H](CC(=O)[O-])C[N+](C)(C)C` [oleoylcarnitine (C18:1)], the “Fold of Change KO/WT” value was 1.56, the “Mean value KO” value is listed as 1.40 and the “Mean value WT” value is reported as “.900”.
Consider `Cc1ccc(O[C@@H]2O[C@H](C(=O)O)[C@@H](O)[C@H](O)[C@H]2O)cc1` [p-cresol glucuronide], for which the “Fold of Change KO/WT” value is 11.8, the “Mean value KO” value is 5.92 and the “Mean value WT” value was “.503”.
The like results for `Cc1ccc(OS(=O)(=O)O)cc1` [p-cresol sulfate] were, in that order, 9.29, 4.66 and “.501”.
The like results for `CCCCCCCCCCCCCCCC(N)=O` [palmitamide (16:0)] were, in that order, 1.40, 1.18 and “.840”.
In the case of `CCCCCCC=CCCCCCCCC(=O)OC(CC(=O)[O-])C[N+](C)(C)C` (stereo not drawn) [palmitoleoylcarnitine (C16:1)], the “Fold of Change KO/WT” value is reported as 1.63, the “Mean value KO” value came to 1.54 and the “Mean value WT” value is on record as “.943”.
The like results for `CCCCCCCCCCCCCCC(=O)O[C@H](CC(=O)[O-])C[N+](C)(C)C` [pentadecanoylcarnitine (C15)] were, in that order, 1.77, 1.28 and “.723”.
The matching figures for `O=C(O)[C@H]1O[C@@H](Oc2ccccc2)[C@H](O)[C@@H](O)[C@@H]1O` [phenol glucuronide]: 1.87, 1.28 and “.684”.
The matching figures for `O=S(=O)(O)Oc1ccccc1` [phenol sulfate]: 1.40, 1.23 and “.879”.
